Nine compounds from patent US9630949B2, “Oxoazetidine derivatives, process for the preparation thereof and use thereof in human medicine and in cosmetics” (GALDERMA RESEARCH & DEVELOPMENT, priority 2008, dated 2017) can be followed below.

Test [1] addresses hMC1R (Homo sapiens (Human), UniProt Q01726). Nature of the test: Transactivation test: melanocortin receptors (pCRE-Luc luciferase reporter), hMC1R. In kind it is cell-based. The conditions noted are these: HEK293 transfected with pCRE-Luc and hMC1R; products tested alone (agonist), 6 h incubation; % activity vs NDP-MSH 10 nM; IA: inactive. The essentials: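 HEK293 cells carrying the pCRE-Luc reporter and hMC1R vectors were grown in DMEM with 10% foetal calf serum at 37° C., 5% CO2, then plated at 5000 cells per well in 384-well plates in serum-free DMEM overnight. Products dissolved at 10 mM in DMSO were added alone as 10-point, 4-fold dilutions from 10 μM (0.1% DMSO) and incubated 6 h. Luciferase luminescence was read on Top-Count after lysis with luciferin, normalized to NDP-MSH 10 nM (100%) and cells alone (0%), and EC50 in nM derived with XLFit.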

Test [2] deals with hMC4R (Homo sapiens (Human), UniProt P32245). The experiment in a line: Transactivation test: melanocortin receptors (pCRE-Luc luciferase reporter), hMC4R. In kind it is cell-based. As to conditions: HEK293 transfected with pCRE-Luc and hMC4R; products tested alone (agonist), 6 h incubation; % activity vs NDP-MSH 10 nM; IA: inactive.
Chain of hMC4R (P32245 whole entry): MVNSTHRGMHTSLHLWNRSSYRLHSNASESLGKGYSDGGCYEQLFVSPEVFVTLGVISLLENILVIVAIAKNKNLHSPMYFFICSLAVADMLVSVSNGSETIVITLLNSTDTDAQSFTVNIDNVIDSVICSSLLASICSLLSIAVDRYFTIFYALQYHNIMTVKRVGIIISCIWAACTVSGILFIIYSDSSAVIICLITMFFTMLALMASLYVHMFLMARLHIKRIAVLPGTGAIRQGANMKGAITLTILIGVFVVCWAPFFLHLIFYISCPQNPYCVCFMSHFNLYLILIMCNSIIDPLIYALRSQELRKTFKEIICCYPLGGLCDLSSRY

Chain of hMC1R (Q01726 whole entry): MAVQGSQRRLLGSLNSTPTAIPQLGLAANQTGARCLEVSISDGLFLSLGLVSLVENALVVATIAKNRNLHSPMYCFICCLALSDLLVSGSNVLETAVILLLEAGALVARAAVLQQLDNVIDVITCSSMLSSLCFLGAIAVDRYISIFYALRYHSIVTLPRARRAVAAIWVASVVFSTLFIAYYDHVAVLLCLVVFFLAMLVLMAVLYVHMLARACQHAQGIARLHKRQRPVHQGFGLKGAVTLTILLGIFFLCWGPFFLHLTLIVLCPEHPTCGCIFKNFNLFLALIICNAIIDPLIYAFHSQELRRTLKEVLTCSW

Broadly, the EC50 is the concentration giving half of the maximal effect. Low readings indicate a more potent agent, high ones a less potent agent. `CCCCOC1(c2ccccc2C)CN(C(=O)[C@@H](Cc2ccc(OC)cc2)NC(=O)[C@@H](O)Cc2c[nH]cn2)C1` [Compound 71, (S)-N-[(R)-2-(3-Butoxy-3-o-tolylazetidin-1-yl)-1-(4-methoxybenzyl)-2-oxoethyl]-2-hydroxy-3-(1H-imidazol-4-yl)propionamide]: the EC50 was 0.06 µM in test [1] and 4 µM in test [2].
In the case of `CCCCOC1(c2ccccc2C)CN(C(=O)C(NC(=O)CCc2c[nH]cn2)C(O)c2ccc(OC)cc2)C1` (stereo not drawn) [Compound 73, N-[1-(3-Butoxy-3-o-tolylazetidine-1-carbonyl)-2-hydroxy-2-(4-methoxyphenyl)ethyl]-3-(1H-imidazol-4-yl)propionamide], the EC50 in test [1] was found to be 0.5 µM; in test [2] it was 8 µM.
As for `CCCCOC1(c2ccccc2C)CN(C(=O)[C@@H](Cc2ccc(OC)cc2)NC(=O)CC(O)c2c[nH]cn2)C1` (stereo partly drawn) [Compound 74, N-[(R)-2-(3-Butoxy-3-o-tolylazetidin-1-yl)-1-(4-methoxybenzyl)-2-oxoethyl]-3-hydroxy-3-(1H-imidazol-4-yl)propionamide], the EC50 in test [1] is 0.25 µM; in test [2] it was 8 µM.
On the same counts, the results for `CC#CCC1(c2ccccc2C)CN(C(=O)[C@@H](Cc2ccc(OC)cc2)NC(=O)CCc2c[nH]cn2)C1` [Compound 75, N-[(R)-2-(3-But-2-ynyl-3-o-tolylazetidin-1-yl)-1-(4-methoxybenzyl)-2-oxoethyl]-3-(1H-imidazol-4-yl)propionamide] are 0.06 µM and 4 µM.
As to `CC#CCOC1(c2ccccc2C)CN(C(=O)[C@@H](Cc2ccc(OC)cc2)NC(=O)CCc2nc[nH]c2C)C1` [Compound 76, N-[(R)-2-(3-But-2-ynyloxy-3-o-tolylazetidin-1-yl)-1-(4-methoxybenzyl)-2-oxoethyl]-3-(5-methyl-1H-imidazol-4-yl)propionamide], the EC50 in test [1] came to 0.03 µM; in test [2], 4 µM.
`COc1ccc(C[C@@H](NC(=O)CCc2c[nH]cn2)C(=O)N2CC(OCC3CCCCC3)(c3ccccc3C)C2)cc1` [Compound 77, N-[(R)-2-(3-Cyclohexylmethoxy-3-o-tolylazetidin-1-yl)-1-(4-methoxybenzyl)-2-oxoethyl]-3-(1H-imidazol-4-yl)propionamide]: the EC50 in test [1] worked out at 0.12 µM; in test [2] it was 2 µM.
For `COc1ccc(C[C@@H](NC(=O)CCc2c[nH]cn2)C(=O)N2CC(OCCCC(F)(F)F)(c3ccccc3C)C2)cc1` [Compound 78], in that order: 0.12 µM and 2 µM.
With `COc1ccc(C[C@@H](NC(=O)CCc2nc[nH]c2C)C(=O)N2CC(OCC3CCC3)(c3ccccc3C)C2)cc1` [Compound 79, N-[(R)-2-(3-Cyclobutylmethoxy-3-o-tolylazetidin-1-yl)-1-(4-methoxybenzyl)-2-oxoethyl]-3-(5-methyl-1H-imidazol-4-yl)propionamide], the EC50 in test [1] was 0.015 µM; in test [2], 1 µM.
As to `COc1ccc(C[C@@H](NC(=O)CCc2nc[nH]c2C)C(=O)N2CC(OCC=C(C)C)(c3ccccc3C)C2)cc1` [Compound 80, N-[(R)-1-(4-Methoxybenzyl)-2-[3-(3-methylbut-2-enyloxy)-3-o-tolylazetidin-1-yl]-2-oxoethyl)-3-(5-methyl-1H-imidazol-4-yl)propionamide], the EC50 in test [1] was determined as 0.015 µM; in test [2], 4 µM.
